# Results as given in patent US20050069877A1, “Protein modification and maintenance molecules” (priority 2001, published 2005).
# Tests used:
# [1] = intranasal; greater than those produced by hydrocortisone; cited from earlier work
# [2] = system: expression of SEQ ID NO:33 in human C3A liver cell line; test: Microarray expression of SEQ ID NO:33 in compound-treated C3A liver cells; format: cell-based; details: human C3A liver cell line incubated for varying lengths of time with compound
# From the text: The array elements are hybridized with polynucleotides in a biological sample. The polynucleotides in the biological sample are conjugated to a fluorescent label or other molecular tag for ease of detection. After hybridization, nonhybridized nucleotides from the biological sample are removed, and a fluorescence scanner is used to detect hybridization at each array element. […] The degree of complementarity and the relative abundance of each polynucleotide which hybridizes to an element on the microarray may be assessed.
# Total RNA is isolated from tissue samples using the guanidinium thiocyanate method and poly(A)^+ RNA is purified using the oligo-(dT) cellulose method. Each poly(A)^+ RNA sample is reverse transcribed using MMLV reverse-transcriptase, 0.05 pg/μl oligo-(dT) primer (21 mer), 1× first strand buffer, 0.03 units/μl RNase inhibitor, 500 μM dATP, 500 μM dGTP, 500 μM dTTP, 40 μM dCTP, 40 μM dCTP-Cy3 (BDS) or dCTP-Cy5 (Amersham Biosciences). The reverse transcription reaction is performed in a 25 ml volume containing 200 ng poly(A)^+ RNA with GEMBRIGHT kits (Incyte). Specific control poly(A)^+ RNAs are synthesized by in vitro transcription from non-coding yeast genomic DNA. […]
# [3] = system: expression of SEQ ID NO:35 in human peripheral blood mononuclear cells (PBMCs); test: Microarray expression of SEQ ID NO:35 in prednisone-treated PBMCs; format: cell-based; details: PBMCs pooled from 6 healthy donors, 5 and 25 μM, 24 hours, compared to untreated controls
# From the text: (§1) Full length cDNAs, Expressed Sequence Tags (ESTs), or fragments or oligomers thereof may comprise the elements of the microarray. Fragments or oligomers suitable for hybridization can be selected using software well known in the art such as LASERGENE software (DNASTAR). The array elements are hybridized with polynucleotides in a biological sample. The polynucleotides in the biological sample are conjugated to a fluorescent label or other molecular tag for ease of detection. After hybridization, nonhybridized nucleotides from the biological sample are removed, and a fluorescence scanner is used to detect hybridization at each array element. Alternatively, laser desorbtion and mass spectrometry may be used for detection of hybridization. The degree of complementarity and the relative abundance of each polynucleotide which hybridizes to an element on the microarray may be assessed. In one embodiment, microarray preparation and usage is described in detail below.
# (§2) Total RNA is isolated from tissue samples using the guanidinium thiocyanate method and poly(A)^+ RNA is purified using the oligo-(dT) cellulose method. […]
# (§3) Sequences of the present invention are used to generate array elements. […] Array elements are amplified in thirty cycles of PCR from an initial quantity of 1-2 ng to a final quantity greater than 5 μg. […]
# [4] = greater than progesterone; cited from earlier work
# [5] = system: expression of SEQ ID NO:44 in peripheral blood mononuclear cells; test: Microarray expression of SEQ ID NO:44 in IL12-treated PBMCs; format: cell-based, human; details: PBMCs from a pool of healthy donors, 1 ng/ml, 24 hours
# From the text: as §1, §2, §3
molecule,measurement,setting,value
C[C@H]1C[C@H]2[C@@H]3CCC4=CC(=O)C=C[C@]4(C)[C@@]3(Cl)[C@@H](O)C[C@]2(C)[C@@]1(O)C(=O)CO [beclomethasone],anti-inflammatory and vasoconstrictive effects relative to hydrocortisone,[1],5000 times
same,expression of SEQ ID NO:33,[2],reduced by at least two fold
C[C@]12C=CC(=O)C=C1CC[C@@H]1[C@@H]2C(=O)C[C@@]2(C)[C@H]1CC[C@]2(O)C(=O)CO [prednisone],expression of SEQ ID NO:35,[3],decreased by at least two-fold
6α-methyl-17-hydroxyprogesterone [medroxyprogesterone],expression of SEQ ID NO:33,[2],reduced by at least two fold
same,pharmacological activity relative to progesterone,[4],about 15 times
"IL12: pleiotropic cytokine produced by macrophages and B lymphocytes (protein, UniProt P29459 23-219; P29460 23-328, looked up) Interleukin-12 subunit alpha: RNLPVATPDPGMFPCLHHSQNLLRAVSNMLQKARQTLEFYPCTSEEIDHEDITKDKTSTVEACLPLELTKNESCLNSRETSFITNGSCLASRKTSFMMALCLSSIYEDLKMYQVEFKTMNAKLLMDPKRQIFLDQNMLAVIDELMQALNFNSETVPQKSSLEEPDFYKTKIKLCILLHAFRIRAVTIDRVMSYLNAS Interleukin-12 subunit beta: IWELKKDVYVVELDWYPDAPGEMVVLTCDTPEEDGITWTLDQSSEVLGSGKTLTIQVKEFGDAGQYTCHKGGEVLSHSLLLLHKKEDGIWSTDILKDQKEPKNKTFLRCEAKNYSGRFTCWWLTTISTDLTFSVKSSRGSSDPQGVTCGAATLSAERVRGDNKEYEYSVECQEDSACPAAEESLPIEVMVDAVHKLKYENYTSSFFIRDIIKPDPPKNLQLKPLKNSRQVEVSWEYPDTWSTPHSYFSLTFCVQVQGKSKREKKDRVFTDKTSATVICRKNASISVRAQDRYYSSSWSEWASVPCS",expression of SEQ ID NO:44,[5],decreased by at least two-fold
